Measurements taken from PubChem BioAssay (NCI).
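Step 1: Grow cells in 96-well plates. Step 2: Expose to compound for 48 hours at 5 concentrations. Step 3: Interpolate endpoints linearly; if unreached, use highest concentration. At the GI50, growth is halved. TGI: total growth inhibition.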

Key:
Assay in all cases: inhibition of tumour cell growth, NCI panel, 48 h
A549 NSCLC = test system: A549 NSCLC
HS 578T breast = test system: HS 578T breast
HT29 colon = test system: HT29 colon
NCI-H226 lung = test system: NCI-H226 lung
NCI-H460 lung = test system: NCI-H460 lung
NCI-H522 lung = test system: NCI-H522 lung
OVCAR-8 ovarian = test system: OVCAR-8 ovarian
SR leukemia = test system: SR leukemia
UACC-257 melanoma = test system: UACC-257 melanoma
UACC-62 melanoma = test system: UACC-62 melanoma

SMILES | GI50 (A549 NSCLC) [µM] | TGI (A549 NSCLC) [µM] | GI50 (HS 578T breast) [µM] | TGI (HS 578T breast) [µM] | GI50 (HT29 colon) [µM] | TGI (HT29 colon) [µM] | GI50 (NCI-H226 lung) [µM] | TGI (NCI-H226 lung) [µM] | GI50 (NCI-H460 lung) [µM] | TGI (NCI-H460 lung) [µM] | GI50 (NCI-H522 lung) [µM] | TGI (NCI-H522 lung) [µM] | GI50 (OVCAR-8 ovarian) [µM] | TGI (OVCAR-8 ovarian) [µM] | GI50 (SR leukemia) [µM] | TGI (SR leukemia) [µM] | GI50 (UACC-257 melanoma) [µM] | TGI (UACC-257 melanoma) [µM] | GI50 (UACC-62 melanoma) [µM] | TGI (UACC-62 melanoma) [µM]
O=C(Nc1ccc(CO)cc1)c1coc2ccccc2c1=O | > 100 | > 100 | 16.2 | 78.1 | > 100 | > 100 | > 100 | > 100 | > 100 | > 100 | > 100 | > 100 | > 100 | > 100 | > 100 | > 100 | > 100 | > 100 | > 100 | > 100
N#CC(=NCCO)C1=C(O)c2ccccc2C1=O |  | > 100 |  | > 100 |  | > 100 |  | > 100 |  | > 100 |  | > 100 |  | > 100 |  | > 100 |  | > 100 |  | > 100
COCCOc1cnc2ccn([C@H](C)c3nnc4c(F)cc(-c5cnn(C)c5)cn34)c(=O)c2c1 | > 100 | > 100 | 82.7 | > 100 | > 100 | > 100 | > 100 | > 100 | > 100 | > 100 | > 100 | > 100 | > 100 | > 100 | > 100 | > 100 | > 100 | > 100 | 56.4 | > 100
COc1ccc(Nc2c3ccccc3nc3occ(Cl)c23)cc1 | < 0.0112 | 3.95 | 0.0237 | 61.3 | < 0.0145 | > 34.8 | 25.1 | > 100 | < 0.01 | 8.18 | < 0.0119 | 6.92 | 0.0476 |  | < 0.01 | 8.36 | 0.0159 | 13.3 | 0.0104 | 42.4
CCn1c(CO)nn(-c2cc(O[C@@H](C)C(F)(F)F)c(C(=O)Nc3c(F)cccc3Cl)cc2F)c1=O | < 0.01 | > 100 | > 22.3 | > 100 | < 0.01 | > 100 |  | > 100 | < 0.01 | > 33.9 | < 0.01 | > 100 | < 0.01 | > 100 | < 0.01 | > 43.1 |  | > 100 | < 0.0217 | > 100
CC(=O)O[C@H](C[C@H](C(C)C)N(C)C(=O)[C@@H](NC(=O)[C@H]1CCCCN1C)C(C)C)c1nc(C(=O)N[C@@H](Cc2ccccc2)C[C@H](C)C(=O)O)c(CCOCc2ccccc2)s1 | < 0.001 | > 10 | < 0.001 | > 10 | < 0.001 | > 10 | < 0.001 | 0.00313 | < 0.001 | > 10 | < 0.001 | < 0.001 | < 0.001 | > 10 | < 0.001 | > 10 | < 0.001 | > 10 | < 0.001 | > 10
C=CCSS/C=C/CS(=O)CC=C (configuration not stated) |  | > 100 |  | > 77.4 |  | > 74.6 |  | > 100 |  | > 100 |  | 32.3 |  | 37.1 |  | > 55.6 |  | > 100 |  | > 82.7
